Assay results: patent publication US7879825B2, “Derivatives of [2-(8,9-dioxo-2,6-diazabicyclo[5.2.0]non-1(7)-en-2-yl)alkyl] phosphonic acid and methods of use thereof” (Wyeth LLC, priority 2003, dated 2011)
Marks after values point to notes of the source that are not given here.

Key:
[1] = system: PGE2-induced thermal hypersensitivity; test: Reversal of prostaglandin E2 (PGE2)-induced thermal hypersensitivity, warm-water tail withdrawal; format: in vivo, Sprague-Dawley rats; details: single oral (PO) dose before PGE2 injection into tail, assessed 30 min after PGE2, SEM in parentheses
Procedure: The compounds of the present invention were evaluated for their effectiveness to treat pain. […] The test methods used herein have been used by others skilled in the art to evaluate the effectiveness of compounds for relieving pain. See e.g., Bennett G J and Xie T K, A peripheral mononeuropathy in rat produces disorders of pain sensation like those seen in man, Pain 33: 87-107 (1988); Chaplan S R, Bach […], Chung J M and Yaksh T L, Quantitative assessment of tactile allodynia in the rat paw, J. Neurosci. Methods 53: 55-63 (1994); and Mosconi T and Kruger L, Fixed-diameter polyethylene cuffs applied to the rat sciatic nerve induce a painful neuropathy: ultrastructural morphometric analysis of axonal alterations Pain 64: 37-57 (1996). Individually housed Sprague-Dawley rats had free access to rat chow and water. A 12-h light/12-h dark cycle was in effect (lights on from 6:00 am to 6:00 pm). Animal maintenance and research were conducted in accordance with the guidelines provided by the National Institutes of Health Committee on Laboratory Animal Resources. These subjects were used in the tests below. The terminal 10 cm of the tail was placed into a thermos bottle containing water warmed to 38, 42, 46, 50 or 54° C. The latency in seconds for the animal to remove the tail from the water was used as a measure of nociception. […] Temperature-effect curves were generated before (baseline) and 30 minutes after the PGE2 injection. […] The ability of compounds to reverse PGE2-induced thermal hypersensitivity was assessed using a single dose time-course procedure. […] sensitivity was assessed 30 min after PGE2 injection. Data Analysis-The temperature that produced a half-maximal increase in the tail-withdrawal latency (i.e., T10) was calculated from each temperature-effect curve. The T10 was determined by interpolation from a line drawn between the point above and the point below 10 sec on the temperature-effect curve.

With O=C(OCOP(=O)(CCN1CCCNc2c1c(=O)c2=O)OCOC(=O)C1CCCCC1)C1CCCCC1 [Example 6, 7-Cyclohexyl-3-{2-[8,9-dioxo-2,6-diazabicyclo[5.2.0]non-1(7)-en-2-yl]ethyl}-3-oxido-7-oxo-2,4,6-trioxa-3-phosphahept-1-yl cyclohexanecarboxylate] the “Reversal of PGE2-induced thermal hypersensitivity, % MPE (±1 SEM)” value (shortened to “Reversal … % MPE (±1 SEM)”) ([1]; 30 mg/kg) was 16.8 (6.8) % MPE and the melting point was 64 to 65 °C.

For CC(C)(C)C(=O)OCOC(CCN1CCCNc2c1c(=O)c2=O)(O[PH2]=O)OC(=O)C(C)(C)C (stereo not shown) [Example 3, 2,2-Dimethyl-propionic acid (2,2-dimethyl-propionyloxymethoxy)-[2-(8,9-dioxo-2,6-diaza-bicyclo[5.2.0]non-1(7)-en-2-yl)-ethyl]-phosphinoyloxymethyl ester], the “Reversal … % MPE (±1 SEM)” value ([1]; 30 mg/kg) was 87.6 (3.3) % MPE.

With CC(C)OC(=O)OCOP(=O)(CCN1CCCNc2c1c(=O)c2=O)OCOC(=O)OC(C)C [Example 7, [2-(8,9-Dioxo-2,6-diaza-bicyclo[5.2.0]non-1-(7)-en-2-yl)-ethyl]-phosphonic acid diiso propoxycarbonyloxymethyl ester] the “Reversal … % MPE (±1 SEM)” value ([1]; 10 mg/kg) was 47.0 (12.6) % MPE and the “Reversal … % MPE (±1 SEM)” value ([1]; 30 mg/kg) was 77.5 (6.7) % MPE.

With CCCC(CCC)C(=O)OCOP(=O)(CCN1CCCNc2c1c(=O)c2=O)OCOC(=O)C(CCC)CCC [Example 2, 3-{2-[8,9-Dioxo-2,6-diazabicyclo[5.2.0]non-1(7)-en-2-yl]ethyl}-3-oxido-7-oxo-8-propyl-2,4,6-trioxa-3-Phosphaundec-1-yl 2-propylpentanoate] the “Reversal … % MPE (±1 SEM)” value ([1]; 10 mg/kg) was 45.6 (13.9) % MPE and the “Reversal … % MPE (±1 SEM)” value ([1]; 30 mg/kg) was 76.5 (3.3) % MPE.

In the case of O=c1c2c(c1=O)N(CCP(=O)(O)O)CCCN2 [Comparative 1, [2-(8,9-dioxo-2,6-diazabicyclo[5.2.0]non-1(7)-en-2-yl)ethyl]phosphonic acid, reference compound], the “Reversal … % MPE (±1 SEM)” value ([1]; 10 mg/kg) was −4.7 (10.6)** % MPE and the “Reversal … % MPE (±1 SEM)” value ([1]; 30 mg/kg) was 44 (9.5) % MPE.

In the case of O=C(OCOP(=O)(CCN1CCCNc2c1c(=O)c2=O)OCOC(=O)c1ccccc1)c1ccccc1 [Example 1, 3-{2-[8,9-Dioxo-2,6-diazabicyclo[5.2.0]non-1(7)-en-2-yl]ethyl}-3-oxido-7-oxo-7-phenyl-2,4,6-trioxa-3-phosphahept-1-yl benzoate], the “Reversal … % MPE (±1 SEM)” value ([1]; 10 mg/kg) was 57.2 (4.7) % MPE and the “Reversal … % MPE (±1 SEM)” value ([1]; 30 mg/kg) was 81 (3.4) % MPE.

In the case of CC(OC(=O)C1CCCCC1)OP(=O)(CCN1CCCNc2c1c(=O)c2=O)OC(C)OC(=O)C1CCCCC1 (stereo not shown) [Example 5, 7-cyclohexyl-3-{2-[8,9-dioxo-2,6-diazabicyclo[5.2.0]non-1(7)-en-2-yl]ethyl}-1,5-dimethyl-3-oxido-7-oxo-2,4,6-trioxa-3-phosphahept-1-yl cyclohexanecarboxylate], the “Reversal … % MPE (±1 SEM)” value ([1]; 30 mg/kg) was 55.9 (9.8) % MPE.

With CC(OC(=O)C1CCCCC1)OP(=O)(CCN1CCCNc2c1c(=O)c2=O)OC(C)OC(=O)C1CCCCC1 (stereo not shown) [Example 4, 7-Cyclohexyl-3-{2-[8,9-dioxo-2,6-diazabicyclo[5.2.0]non-1(7)-en-2-yl]ethyl}-1,5-dimethyl-3-oxido-7-oxo-2,4,6-trioxa-3-phosphahept-1-yl cyclohexanecarboxylate] the “Reversal … % MPE (±1 SEM)” value ([1]; 30 mg/kg) was 78.9 (5.8) % MPE.
